These are literature values, as cited in publication PMC7036871, “Identification and Characterization of pantocin wh-1, a Novel Cyclic Polypeptide Produced by Pantoea dispersa W18” (Molecules, 2020).

The test system of this data set is M. tuberculosis. Also noted: method as in 8 sources, ref [15],[16] = [15]; PMID 24684906; doi:10.1016/j.chembiol.2014.01.014; 15. Gavrish E. Sit C.S. Cao S. Kandror O. Spoering A. Peoples A. Ling L. Fetterman A. Hughes D. Bissell A. Lassomycin, a ribosomally synthesized cyclic peptide, kills mycobacterium tuberculosis by tar || [16]; PMID 24766844; doi:10.1016/j.chembiol.2014.04.002; 16. Parish T. Targeting mycobacterial proteolytic complexes with natural products Chem. Biol. 2014 21 437 438 10.1016/j.chembiol.2014.04.002 24766844 ||| ref [17] = [17]; PMID 25421483; doi:10.1128/AAC.04054-14; 17. Gao W. Kim J.Y. Anderson J.R. Akopian T. Hong S. Jin Y.Y. Kandror O. Kim J.W. Lee I.A. Lee S.Y. The cyclic peptide ecumicin targeting ClpC1 is active against Mycobacterium tuberculosis in vivo Ant ||| ref [18],[19] = [18]; PMID 21969594; doi:10.1073/pnas.1110385108; 18. Sass P. Josten M. Famulla K. Schiffer G. Sahl H.G. Hamoen L. Brotz-Oesterhelt H. Antibiotic acyldepsipeptides activate ClpP peptidase to degrade the cell division protein FtsZ Proc. Natl. Acad. Sc || [19]; PMID 22123255; doi:10.1128/JB.06142-11; 19. Ollinger J. O’Malley T. Kesicki E.A. Odingo J. Parish T. Validation of the Essential ClpP Protease in Mycobacterium tuberculosis as a Novel Drug Target J. Bacteriol. 2012 194 663 668 10.1128/JB.06 ||| ref [20] = [20]; PMID 22987724; doi:10.1002/emmm.201201689; 20. Hartkoorn R.C. Sala C. Neres J. Pojer F. Magnet S. Mukherjee R. Uplekar S. Boy-Rottger S. Altmann K.H. Cole S.T. Towards a new tuberculosis drug: Pyridomycin-nature’s isoniazid Embo. Mol. Med. 201 ||| ref [21] = [21]; PMID 10747933; doi:10.1074/jbc.M000569200; 21. Kremer L. Douglas J.D. Baulard A.R. Morehouse C. Guy M.R. Alland D. Dover L.G. Lakey J.H. Jacobs W.R. Brennan P.J. Thiolactomycin and related analogues as novel anti-mycobacterial agents targeting ||| ... As to conditions: anti-TB, cited from earlier work.

Values after ≈ are worked out from the molar mass of the structure shown. Where two headings read alike, the source gives them in different places.

What is called MIC is the lowest concentration that inhibits growth of the organism. For the compound Teixobactin, for the setting “target lipid II, ref [24]”, the minimum inhibitory concentration (MIC) is 0.125 µM.

Consider Ilamycins, for which the minimum inhibitory concentration (MIC) (target not given, ref [25]) was 0.0098 µM.

On to Cyclomarin A, for which the minimal inhibitory concentration (MIC) (target ClpC1, ref [22],[23]) was 0.3 to 2.5 µM.

With Ecumicin, the MIC (target ClpC1, ref [17]) is 0.13 to 0.3 µM. For the compound `C=C/C(C)=C/[C@@]1(C)SC(=O)C(C)=C1O` [Thiolactomycin], the minimum inhibitory concentration (MIC) (target β-ketoacyl-ACP synthase, ref [21]) is 92.5 µM (≈ 19.5 µg/mL).

Lassomycin: the MIC (target ClpC1, ref [15],[16]) was 0.42 to 1.57 µM.
